This is an account of results in patent US20240182427A1, “SOLID DOSAGE FORMS OF A PLASMA KALLIKREIN INHIBITOR” (Rezolute, Inc., priority 2022, published 2024).

The test system of data set [1] is patients with hereditary angioedema. The conditions noted are these: cited from earlier work.
Data set [2] has as its system animal model of ischemic stroke. The settings on record: cited from earlier work.
A short description of data set [3]: Intestinal permeability / solubility classification (BCS).
The test system of data set [4] is angiotensin-II-treated rodents. The conditions noted are these: cited from earlier work.
Data set [5] deals with model of hemorrhagic stroke. The settings on record: cited from earlier work.
Data set [6] can be described thus: Aqueous solubility of anhydrous Crystalline Form I. The conditions noted are these: water (aqueous); anhydrous Crystalline Form I of acetate salt, at 25° C. The data set is classed as physicochemical.
Data set [7] concerns rat model of ischemic stroke. The conditions noted are these: cited from earlier work.
Data set [8] concerns mouse model of middle cerebral artery occlusion. The settings on record: cited from earlier work.

Take ecallantide: the “edema in patients with hereditary angioedema” value in data set [1] (patients) was “alleviates”. In data set [2], the brain edema result is on record as “reduced”, the infarct volume result is on record as “reduced” and the neurological deficits result is “reduced”.
A word on the solubility: it is the dissolved amount per volume that the medium holds. As for `N=C(N)c1ccc(CNC(=O)c2cnn(Cc3ccccc3)c2)cc1` [Compound 1, 1-benzyl-1H-pyrazole-4-carboxylic acid 4-carbamimidoylbenzylamide], in data set [3], the BCS class result was “BCS Class 3” and the solubility result was “high”. Besides, the retinal vascular permeability entry in data set [4] is “reduce”. Moreover, the “expansion of intracerebral hemorrhage” value in data set [5] was “reduce”. The solubility in data set [6] was approximately 8300 µg/mL. Besides, in data set [7], the cerebrovascular edema result is “reduce” and the infarction volume result was “reduce”.
In the case of `NC(N)=NCCC[C@@H](N)C(=O)N[C@@H](CCCN=C(N)N)C(=O)N1CCC[C@H]1C(=O)N1C[C@H](O)C[C@H]1C(=O)NCC(=O)N[C@@H](Cc1cccs1)C(=O)N[C@@H](CO)C(=O)N1Cc2ccccc2C[C@@H]1C(=O)N1[C@H](C(=O)N[C@@H](CCCN=C(N)N)C(=O)O)C[C@@H]2CCCC[C@@H]21` [icatibant], the treating hereditary angioedema entry in data set [1] (human, in vivo) is “effective”.
Take Hoe-140 [reference compound]: in data set [4], the retinal vascular permeability result is recorded as “reduce”.

B1: C1-INH: the major endogenous inhibitor of PK (protein, UniProt P05155 23-500, looked up)
Plasma protease C1 inhibitor: NPNATSSSSQDPESLQDRGEGKVATTVISKMLFVEPILEVSSLPTTNSTTNSATKITANTTDEPTTQPTTEPTTQPTIQPTQPTTQLPTDSPTQPTTGSFCPGPVTLCSDLESHSTEAVLGDALVDFSLKLYHAFSAMKKVETNMAFSPFSIASLLTQVLLGAGENTKTNLESILSYPKDFTCVHQALKGFTTKGVTSVSQIFHSPDLAIRDTFVNASRTLYSSSPRVLSNNSDANLELINTWVAKNTNNKISRLLDSLPSDTRLVLLNAIYLSAKWKTTFDPKKTRMEPFHFKNSVIKVPMMNSKKYPVAHFIDQTLKAKVGQLQLSHNLSLVILVPQNLKHRLEDMEQALSPSVFKAIMEKLEMSKFQPTLLTLPRIKVTTSQDMLSIMEKLEFFDFSYDLNLCGLTEDPDLQVSAMQHQTVLELTETGVEAAAASAISVARTLLVFEVQQPFLFVLWDQQHKFPVFMGRVYDPRA
On to B1, for which the infarct size entry in data set [8] is reported as “reduced”.
